In ChEMBL document CHEMBL1909046, “DrugMatrix in vitro pharmacology data”:

Assays:
[1] = target: T1, Thromboxane-A synthase (Homo sapiens, UniProt P24557); experiment: biochemical; type: tissue-based, Platelet;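 further: enzyme inhibition assay with PGH2 supplied as substrate; in other assays of this panel Not Active means under 50% inhibition at 10 µM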
T1 sequence (P24557 whole entry): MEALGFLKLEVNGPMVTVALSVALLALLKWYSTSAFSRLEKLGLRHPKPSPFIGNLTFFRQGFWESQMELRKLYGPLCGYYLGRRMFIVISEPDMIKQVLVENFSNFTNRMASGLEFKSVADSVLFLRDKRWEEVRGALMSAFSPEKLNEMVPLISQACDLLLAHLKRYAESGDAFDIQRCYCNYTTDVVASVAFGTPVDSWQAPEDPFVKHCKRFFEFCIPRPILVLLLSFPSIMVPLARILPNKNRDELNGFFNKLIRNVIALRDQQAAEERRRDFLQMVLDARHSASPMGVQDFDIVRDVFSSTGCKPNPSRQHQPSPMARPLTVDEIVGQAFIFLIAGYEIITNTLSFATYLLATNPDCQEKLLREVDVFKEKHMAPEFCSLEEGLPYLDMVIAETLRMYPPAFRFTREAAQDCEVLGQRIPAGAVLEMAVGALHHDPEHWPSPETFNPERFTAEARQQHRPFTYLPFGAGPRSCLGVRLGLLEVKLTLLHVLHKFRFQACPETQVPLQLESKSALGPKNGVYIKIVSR

[2] = target: T2, Cathepsin G (Homo sapiens, UniProt P08311); experiment: biochemical; type: tissue-based, Neutrophil; conditions: neutrophil;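 further: inhibition of Cathepsin G enzyme activity, tested on an AMC-conjugated peptide substrate; in other assays of this panel Not Active means under 50% inhibition at 10 µM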
T2 sequence (P08311 whole entry): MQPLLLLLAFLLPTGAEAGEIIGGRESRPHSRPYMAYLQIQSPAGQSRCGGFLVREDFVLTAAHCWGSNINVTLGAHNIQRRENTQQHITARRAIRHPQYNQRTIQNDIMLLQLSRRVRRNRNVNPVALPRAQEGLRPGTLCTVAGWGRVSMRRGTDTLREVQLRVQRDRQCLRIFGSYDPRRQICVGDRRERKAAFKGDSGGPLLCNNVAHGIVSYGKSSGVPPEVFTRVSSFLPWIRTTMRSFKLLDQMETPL

[3] = DRUGMATRIX: Phorbol Ester radioligand binding (ligand: [3H] PDBu); type: cell membranes, Mus musculus, ICR, Brain, Membrane; conditions: Not Active = under 50% inhibition at 10 µM
[4] = target: Sodium-dependent dopamine transporter (Homo sapiens, UniProt Q01959); experiment: DRUGMATRIX: Dopamine Transporter radioligand binding (ligand: [125I] RTI-55); type: cell membranes, CHO-K1, Membrane; conditions: cho-k1; Not Active = under 50% inhibition at 10 µM
Chain of Sodium-dependent dopamine transporter (Q01959 whole entry): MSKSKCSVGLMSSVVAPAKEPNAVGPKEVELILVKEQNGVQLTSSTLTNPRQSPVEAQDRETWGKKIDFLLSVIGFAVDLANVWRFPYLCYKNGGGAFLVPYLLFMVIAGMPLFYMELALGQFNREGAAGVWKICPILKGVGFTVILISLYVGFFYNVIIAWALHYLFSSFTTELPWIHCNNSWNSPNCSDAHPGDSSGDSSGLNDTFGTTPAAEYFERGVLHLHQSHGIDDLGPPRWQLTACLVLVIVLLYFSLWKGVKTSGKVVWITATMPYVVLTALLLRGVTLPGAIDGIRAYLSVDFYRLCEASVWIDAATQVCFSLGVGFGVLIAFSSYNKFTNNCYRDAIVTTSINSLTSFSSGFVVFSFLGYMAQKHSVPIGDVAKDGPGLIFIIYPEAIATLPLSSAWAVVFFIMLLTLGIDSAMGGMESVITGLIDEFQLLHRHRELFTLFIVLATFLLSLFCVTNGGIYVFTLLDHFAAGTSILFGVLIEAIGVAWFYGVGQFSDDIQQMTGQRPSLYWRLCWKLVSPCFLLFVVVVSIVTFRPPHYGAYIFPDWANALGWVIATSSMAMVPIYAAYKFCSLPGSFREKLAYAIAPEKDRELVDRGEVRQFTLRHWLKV

[5] = target: Melanocortin receptor 3 (Homo sapiens, UniProt P41968); type: cell membranes, HEK293, Membrane; conditions: hek293; further: in other assays of this panel Not Active means under 50% inhibition at 10 µM
Chain of Melanocortin receptor 3 (P41968 whole entry): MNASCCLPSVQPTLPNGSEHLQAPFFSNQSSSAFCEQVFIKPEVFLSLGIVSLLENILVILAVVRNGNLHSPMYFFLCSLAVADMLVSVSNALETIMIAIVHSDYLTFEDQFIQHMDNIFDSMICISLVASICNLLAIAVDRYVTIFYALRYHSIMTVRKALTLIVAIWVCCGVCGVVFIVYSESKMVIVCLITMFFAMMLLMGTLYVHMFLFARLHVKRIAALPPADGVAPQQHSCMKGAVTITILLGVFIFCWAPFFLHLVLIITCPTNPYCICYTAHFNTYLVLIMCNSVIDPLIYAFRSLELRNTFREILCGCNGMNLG

[6] = target: T3, B2 bradykinin receptor (Homo sapiens, UniProt P30411); type: cell membranes, Membrane; conditions: chem-1; further: in other assays of this panel Not Active means under 50% inhibition at 10 µM
T3 sequence (P30411 whole entry): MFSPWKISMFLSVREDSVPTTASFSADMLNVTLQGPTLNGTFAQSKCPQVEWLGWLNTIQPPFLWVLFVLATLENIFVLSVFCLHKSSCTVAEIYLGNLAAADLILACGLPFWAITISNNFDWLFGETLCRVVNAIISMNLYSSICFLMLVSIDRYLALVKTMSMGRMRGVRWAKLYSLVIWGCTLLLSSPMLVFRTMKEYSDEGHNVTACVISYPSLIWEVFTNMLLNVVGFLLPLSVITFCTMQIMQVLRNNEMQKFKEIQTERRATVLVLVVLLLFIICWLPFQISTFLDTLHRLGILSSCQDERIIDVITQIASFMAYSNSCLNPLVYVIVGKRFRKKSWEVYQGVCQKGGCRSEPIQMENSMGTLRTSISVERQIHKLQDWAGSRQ

[7] = target: T4, Receptor-type tyrosine-protein phosphatase C (Homo sapiens, UniProt P08575); set-up: species or system Escherichia coli
T4 sequence (P08575 whole entry): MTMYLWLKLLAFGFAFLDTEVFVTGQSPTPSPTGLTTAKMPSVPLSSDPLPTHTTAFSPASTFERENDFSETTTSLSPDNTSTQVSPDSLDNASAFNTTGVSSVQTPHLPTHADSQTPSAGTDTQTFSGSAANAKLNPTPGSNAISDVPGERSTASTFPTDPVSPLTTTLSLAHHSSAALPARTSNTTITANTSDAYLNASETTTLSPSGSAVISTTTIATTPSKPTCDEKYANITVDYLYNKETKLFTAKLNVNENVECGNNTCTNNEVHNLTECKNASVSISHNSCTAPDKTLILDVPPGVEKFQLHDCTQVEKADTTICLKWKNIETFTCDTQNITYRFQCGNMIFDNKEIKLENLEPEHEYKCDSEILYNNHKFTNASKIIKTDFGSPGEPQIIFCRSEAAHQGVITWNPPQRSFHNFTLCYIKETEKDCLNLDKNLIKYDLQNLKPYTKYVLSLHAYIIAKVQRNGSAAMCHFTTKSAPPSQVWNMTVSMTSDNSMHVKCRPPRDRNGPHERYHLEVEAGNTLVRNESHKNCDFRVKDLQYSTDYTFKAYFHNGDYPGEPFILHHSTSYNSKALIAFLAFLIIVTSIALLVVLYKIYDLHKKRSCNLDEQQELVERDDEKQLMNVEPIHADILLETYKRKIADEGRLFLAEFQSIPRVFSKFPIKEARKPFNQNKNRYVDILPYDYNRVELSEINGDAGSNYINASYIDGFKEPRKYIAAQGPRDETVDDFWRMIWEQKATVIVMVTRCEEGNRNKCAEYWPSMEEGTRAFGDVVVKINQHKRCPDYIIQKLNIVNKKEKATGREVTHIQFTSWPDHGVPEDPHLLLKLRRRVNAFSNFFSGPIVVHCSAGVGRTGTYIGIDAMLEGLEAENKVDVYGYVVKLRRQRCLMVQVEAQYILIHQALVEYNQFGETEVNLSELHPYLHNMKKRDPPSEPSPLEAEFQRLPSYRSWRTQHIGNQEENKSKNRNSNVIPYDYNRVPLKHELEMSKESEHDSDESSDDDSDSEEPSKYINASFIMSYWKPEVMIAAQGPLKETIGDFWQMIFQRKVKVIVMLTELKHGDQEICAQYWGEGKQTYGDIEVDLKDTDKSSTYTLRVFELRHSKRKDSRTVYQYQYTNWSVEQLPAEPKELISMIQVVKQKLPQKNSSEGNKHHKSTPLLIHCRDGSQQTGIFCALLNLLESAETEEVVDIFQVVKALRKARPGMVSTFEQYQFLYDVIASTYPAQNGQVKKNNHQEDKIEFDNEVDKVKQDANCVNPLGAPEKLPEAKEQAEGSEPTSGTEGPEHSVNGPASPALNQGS

Molecule | IC50 ([1]; platelet) | Ki ([1]; platelet) | IC50 [2] | Ki [2] | IC50 [3] | Ki [3] | IC50 [4] | Ki [4] | IC50 [5] | Ki [5] | IC50 [6] | Ki [6] | IC50 [7] | Ki [7] | IC50 ([1]; read-out: IC50) [µM]
LEAD(IV) ACETATE | Not Active | Not Active | Not Active | Not Active | Not Active | Not Active | Not Active | Not Active | Not Active | Not Active | Not Active | Not Active | Not Active | Not Active | 
CC#C[C@]1(O)CC[C@H]2[C@@H]3CCC4=CC(=O)CCC4=C3[C@@H](c3ccc(N(C)C)cc3)C[C@@]21C [MIFEPRISTONE] | Not Active |  | Not Active |  | Not Active | Not Active | Not Active |  | Not Active |  | Not Active |  | Not Active |  | 
CS(=O)(=O)c1ccc(C2=C(c3ccccc3)C(=O)OC2)cc1 [ROFECOXIB] | Not Active |  | Not Active |  | Not Active | Not Active | Not Active |  | Not Active |  | Not Active |  | Not Active |  | 
COC(=O)Nc1nc2ccc(C(=O)c3ccccc3)cc2[nH]1 [MEBENDAZOLE] | Not Active |  | Not Active |  | Not Active | Not Active | Not Active |  | Not Active |  | Not Active |  | Not Active |  | 
CC(O)C(=O)O (stereo not drawn) [LACTIC ACID] | Not Active |  | Not Active |  | Not Active | Not Active | Not Active |  | Not Active |  | Not Active |  | Not Active |  | 
CC(N)C12CC3CC(CC(C3)C1)C2 (stereo not drawn) [RIMANTADINE] | Not Active |  | Not Active |  | Not Active | Not Active | Not Active |  | Not Active |  | Not Active |  | Not Active |  | 
CO[C@@H]1[C@@H](OC)[C@H](C)[C@@](O)(CC(=O)O)O[C@H]1[C@H](C)[C@H]1O[C@@]2(CC[C@@](C)([C@H]3CC[C@@](C)([C@@H]4O[C@@H]([C@H]5O[C@](C)(O)[C@H](C)C[C@@H]5C)C[C@@H]4O[C@@H]4C[C@H](OC)[C@@H](OC)[C@H](C)O4)O3)O2)C[C@H](O)[C@H]1C.N [MADURAMICIN] | Not Active |  | Not Active |  | Not Active | Not Active | Not Active |  | Not Active |  | Not Active |  | Not Active |  | 
CCOC(=O)C1=C(C)NC(C)=C(C(=O)OCC)C1c1ccccc1/C=C/C(=O)OC(C)(C)C [LACIDIPINE] |  |  | Not Active |  | Not Active | Not Active | Not Active |  | Not Active |  | Not Active |  | Not Active |  | 1.69
CC(C)(C)NC[C@H](O)COc1cccc2c1CCCC2=O [LEVOBUNOLOL] | Not Active |  | Not Active |  | Not Active | Not Active | Not Active |  | Not Active |  | Not Active |  | Not Active |  | 
Cc1[nH]c(=O)c(C#N)cc1-c1ccncc1 [MILRINONE] | Not Active |  | Not Active |  | Not Active | Not Active | Not Active |  | Not Active |  | Not Active |  | Not Active |  | 
C1CCN2C[C@@H]3C[C@@H](CN4CCCC[C@@H]34)[C@H]2C1 [SPARTEINE] | Not Active |  | Not Active |  | Not Active | Not Active | Not Active |  | Not Active |  | Not Active |  | Not Active |  | 
Cc1cnc(NC(=O)C2=C(O)c3ccccc3S(=O)(=O)N2C)s1 [MELOXICAM] | Not Active |  | Not Active |  | Not Active | Not Active | Not Active |  | Not Active |  | Not Active |  | Not Active |  | 
CO[C@@]12[C@H](COC(N)=O)C3=C(C(=O)C(C)=C(N)C3=O)N1C[C@@H]1N[C@@H]12 [MITOMYCIN] | Not Active |  | Not Active |  | Not Active | Not Active | Not Active |  | Not Active |  | Not Active |  | Not Active |  | 
CC(Cl)(Cl)Cl [TRICHLOROETHANE] | Not Active |  | Not Active |  | Not Active | Not Active | Not Active |  | Not Active |  | Not Active |  | Not Active |  | 
O=[As][O-].[Na+] [SODIUM ARSENITE] | Not Active |  | Not Active |  | Not Active | Not Active | Not Active |  | Not Active |  | Not Active |  | Not Active |  | 
Cc1ccc(Cl)c(Nc2ccccc2C(=O)O)c1Cl [MECLOFENAMIC ACID] | Not Active |  | Not Active |  | Not Active | Not Active | Not Active |  | Not Active |  | Not Active |  | Not Active |  | 
Cc1ccc(S(=O)(=O)NC(=O)NN2CCCCCC2)cc1 [TOLAZAMIDE] | Not Active |  | Not Active |  | Not Active | Not Active | Not Active |  | Not Active |  | Not Active |  | Not Active |  | 
O=C(O)c1cc(/N=N/c2ccc(S(=O)(=O)Nc3ccccn3)cc2)ccc1O [SULFASALAZINE] |  |  | Not Active |  | Not Active | Not Active | Not Active |  | Not Active |  | Not Active |  | Not Active |  | 19.6
CC(=O)O[C@]1(C(C)=O)CC[C@H]2[C@@H]3C[C@H](C)C4=CC(=O)CC[C@]4(C)[C@H]3CC[C@@]21C [MEDROXYPROGESTERONE ACETATE] | Not Active |  | Not Active |  | Not Active | Not Active | Not Active |  | Not Active |  | Not Active |  | Not Active |  | 
